In US9029389B2 (Institut Pasteur Korea, priority 2011, dated 2015):

Columns and labels:
Human 5-lipoxygenase = molecular target: T1, Human 5-lipoxygenase (Homo sapiens, UniProt P09917); assay: Activity of compounds against 5-LO enzyme (LTB4 measurement and/or fluorescence method); format: biochemical; settings: for inhibition at 10 µM: 5-LO, single concentration of 10 uM in duplicate; for IC50: 6 or 11 point dose response in duplicate
T1 construct: purchased Cayman 60402; host or cells: insect cells
T1 sequence (P09917 1-674): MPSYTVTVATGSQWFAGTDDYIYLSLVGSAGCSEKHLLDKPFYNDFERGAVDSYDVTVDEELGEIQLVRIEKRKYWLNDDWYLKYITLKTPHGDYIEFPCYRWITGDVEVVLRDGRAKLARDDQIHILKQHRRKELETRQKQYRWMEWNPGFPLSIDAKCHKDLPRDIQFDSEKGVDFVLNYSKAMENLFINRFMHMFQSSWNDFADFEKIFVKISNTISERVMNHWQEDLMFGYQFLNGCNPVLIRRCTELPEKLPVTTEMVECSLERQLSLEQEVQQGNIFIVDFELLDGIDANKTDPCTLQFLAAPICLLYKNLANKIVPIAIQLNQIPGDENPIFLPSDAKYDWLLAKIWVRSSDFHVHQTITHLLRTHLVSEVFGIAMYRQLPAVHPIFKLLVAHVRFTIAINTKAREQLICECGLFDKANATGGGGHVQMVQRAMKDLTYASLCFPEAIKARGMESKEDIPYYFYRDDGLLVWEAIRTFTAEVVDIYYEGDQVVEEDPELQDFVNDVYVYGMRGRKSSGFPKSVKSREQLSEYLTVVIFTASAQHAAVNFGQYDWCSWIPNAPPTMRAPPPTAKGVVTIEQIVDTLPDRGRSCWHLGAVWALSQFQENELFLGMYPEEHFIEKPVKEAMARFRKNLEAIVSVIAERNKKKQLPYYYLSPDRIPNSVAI
Outline: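 Two read-outs: LTB4 measured by EIA and/or LC/MS/MS with LTB4-d4 standard after 15 min RT compound preincubation with insect-cell 5-LO and a 5 min 37 °C reaction on 3 uM arachidonic acid (0.1 mM ATP, pH 7.4). The room-temperature fluorescence format used 20 uM H2DCFDA, 100 uM ATP, 3 uM arachidonic acid, 5 min; IC50 from 6/11-point curves.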

Structure (SMILES) | inhibition at 10 µM (Human 5-lipoxygenase) [%] | melting point [°C] | IC50 (Human 5-lipoxygenase) [µM]
CCc1nc2cc(C)ccn2c1C(=O)NCc1ccc(N2CCOCC2)cc1 [compound 94, 2-Ethyl-7-methyl-N-(4-morpholinobenzyl)imidazo[1,2-a]pyridine-3-carboxamide] | < 40 | 190 | –
CCc1nc2cc(C)ccn2c1C(=O)NCc1ccc2ccccc2c1 [compound 95, 2-Ethyl-7-methyl-N-(naphthalen-2-ylmethyl)imidazo[1,2-a]pyridine-3-carboxamide] | 40 to 69 | 192 | –
CCCC(=O)NCc1ccc(N2CCN(c3ccc(CNC(=O)c4c(CC)nc5cc(Cl)ccn45)cc3)CC2)cc1 [compound 125, N-(4-(4-(4-(Butyramidomethyl)phenyl)piperazin-1-yl)benzyl)-7-chloro-2-ethylimidazo[1,2-a]pyridine-3-carboxamide] | 40 to 69 | 238 to 239.2 | –
CCc1nc2cc(Cl)ccn2c1C(=O)NCc1ccc(N2CCN(Cc3ccc(F)cc3)CC2)cc1 [compound 126, 7-Chloro-2-ethyl-N-(4-(4-(4-fluorobenzyl)piperazin-1-yl)benzyl)imidazo[1,2-a]pyridine-3-carboxamide] | > 69 | 141 to 142 | 1 to 20
CCc1nc2cc(Cl)ccn2c1C(=O)NCc1ccc(Oc2ccc(OC(F)(F)F)cc2)cc1 [compound 128, 7-Chloro-2-ethyl-N-(4-(4-(trifluoromethoxy)phenoxy)benzyl)imidazo[1,2-a]pyridine-3-carboxamide] | > 69 | 141 to 142 | < 1
CCc1nc2ccc(Cl)cn2c1C(=O)NCc1ccc(C#N)cc1 [compound 134, 6-Chloro-N-(4-cyanobenzyl)-2-ethylimidazo[1,2-a]pyridine-3-carboxamide] | < 40 | 223 to 224 | –
CCc1nc2ccc(Cl)cn2c1C(=O)NCc1ccc(C(F)(F)F)cc1 [compound 135, 6-Chloro-2-ethyl-N-(4-(trifluoromethyl)benzyl)imidazo[1,2-a]pyridine-3-carboxamide] | < 40 | 179 to 180 | –
CCc1nc2ccc(Cl)cn2c1C(=O)NCCc1ccc(OC)cc1 [compound 136, 6-Chloro-2-ethyl-N-(4-methoxyphenethyl)imidazo[1,2-a]pyridine-3-carboxamide] | < 40 | 129 to 130 | –
CCc1nc2ccc(Cl)cn2c1C(=O)NCCc1ccc(Cl)cc1 [compound 137, 6-Chloro-N-(4-chlorophenethyl)-2-ethylimidazo[1,2-a]pyridine-3-carboxamide] | 40 to 69 | 158 to 159 | –
CCc1nc2ccc(Cl)cn2c1C(=O)NCC1CCN(Cc2ccc(OC(F)(F)F)cc2)CC1 [compound 138, 6-Chloro-2-ethyl-N-((1-(4-(trifluoromethoxy)benzyl)piperidin-4-yl)methyl)imidazo[1,2-a]pyridine-3-carboxamide] | 40 to 69 | 171 to 172 | –
CCc1nc2ccc(Cl)cn2c1C(=O)NCC1CCN(Cc2ccc(F)cc2)CC1 [compound 139, 6-Chloro-2-ethyl-N-((1-(4-fluorobenzyl)piperidin-4-yl)methyl)imidazo[1,2-a]pyridine-3-carboxamide] | < 40 | 176 to 177 | –
CCc1nc2cc(Cl)ccn2c1C(=O)NCC1CCN(Cc2ccc(OC(F)(F)F)cc2)CC1 [compound 140, 7-Chloro-2-ethyl-N-((1-(4-(trifluoromethoxy)benzyl)piperidin-4-yl)methyl)imidazo[1,2-a]pyridine-3-carboxamide] | 40 to 69 | 145 to 146 | –
CCc1nc2cnccn2c1C(=O)NCc1ccc(OC(F)(F)F)cc1 [compound 141, 2-Ethyl-N-(4-(trifluoromethoxy)benzyl)imidazo[1,2-a]pyrazine-3-carboxamide] | < 40 | 176 to 177 | –
CCc1nc2c[n+]([O-])ccn2c1C(=O)NCc1ccc(OC(F)(F)F)cc1 [compound 142, 2-Ethyl-3-((4-(trifluoromethoxy)benzyl)carbamoyl)imidazo[1,2-a]pyrazine 7-oxide] | 40 to 69 | 215 to 216 | –
CCc1nc2ccc(Cl)cn2c1COc1ccc(OC(F)(F)F)cc1 [compound 143, 6-Chloro-2-ethyl-3-((4-(trifluoromethoxy)phenoxy)methyl)imidazo[1,2-a]pyridine] | > 69 | 127 to 128 | –
CCc1nc2ccc(Cl)cn2c1C=O [compound 145, 6-Chloro-2-ethylimidazo[1,2-a]pyridine-3-carbaldehyde] | < 40 | 115 to 116 | –
CCc1nc2ccc(Cl)cn2c1CO [compound 146, (6-Chloro-2-ethylimidazo[1,2-a]pyridin-3-yl)methanol] | < 40 | 173.2 to 174.2 | –
CCc1nc2cc(Cl)ccn2c1C(=O)NCc1ccc(C(F)(F)F)cc1 [compound 155, 7-Chloro-2-ethyl-N-(4-(trifluoromethyl)benzyl)imidazo[1,2-a]pyridine-3-carboxamide] | < 40 | 196.2 to 196.9 | –
CCc1nc2ccc(Cl)cn2c1C(=O)NCc1ccc(N2CCN(Cc3ccc(OC(F)(F)F)cc3)CC2)cc1 [compound 156, 6-Chloro-2-ethyl-N-(4-(4-(4-(trifluoromethoxy)benzyl)piperazin-1-yl)benzyl)imidazo[1,2-a]pyridine-3-carboxamide] | < 40 | 138.1 to 138.7 | –
CCc1nc2cc(Cl)ccn2c1C(=O)NCc1ccc(N2CCN(Cc3ccc(OC(F)(F)F)cc3)CC2)cc1 [compound 157, 7-Chloro-2-ethyl-N-(4-(4-(4-(trifluoromethoxy)benzyl)piperazin-1-yl)benzyl)imidazo[1,2-a]pyridine-3-carboxamide] | > 69 | 137.1 to 137.6 | 1 to 20
CCc1nc2ccc(Cl)cn2c1C(=O)NCc1ccc(N2CCN(c3ccc(OC(F)(F)F)cc3)CC2)cc1 [compound 158, 6-Chloro-2-ethyl-N-(4-(4-(4-(trifluoromethoxy)phenyl)piperazin-1-yl)benzyl)imidazo[1,2-a]pyridine-3-carboxamide] | 40 to 69 | 206.5 to 207 | –
CCc1nc2cc(Cl)ccn2c1C(=O)NCc1ccc(N2CCN(c3ccc(OC(F)(F)F)cc3)CC2)cc1 [compound 159, 7-Chloro-2-ethyl-N-(4-(4-(4-(trifluoromethoxy)phenyl)piperazin-1-yl)benzyl)imidazo[1,2-a]pyridine-3-carboxamide] | 40 to 69 | 216.3 to 217 | –
CCc1nc2ccc(Cl)cn2c1C(=O)NCc1ccc(Oc2ccc(Cl)cc2)cc1 [compound 160, 6-Chloro-N-(4-(4-chlorophenoxy)benzyl)-2-ethylimidazo[1,2-a]pyridine-3-carboxamide] | 40 to 69 | 159 to 160.7 | –
CCc1nc2cc(Cl)ccn2c1C(=O)NCc1ccc(Oc2ccc(Cl)cc2)cc1 [compound 161, 7-Chloro-N-(4-(4-chlorophenoxy)benzyl)-2-ethylimidazo[1,2-a]pyridine-3-carboxamide] | > 69 | 167.1 to 167.9 | 1 to 20
CCc1nc2ccc(Cl)cn2c1C(=O)OCc1ccc(-c2ccccc2)cc1 [compound 162, [1,1′-Biphenyl]-4-ylmethyl 6-chloro-2-ethylimidazo[1,2-a]pyridine-3-carboxylate] | 40 to 69 | 122.3 to 123 | –
CCc1nc2ccc(Cl)cn2c1C(=O)OCc1ccc(Oc2ccccc2)cc1 [compound 163, 4-Phenoxybenzyl 6-chloro-2-ethylimidazo[1,2-a]pyridine-3-carboxylate] | 40 to 69 | 123.3 to 123.8 | –
CCc1nc2ccc(Cl)cn2c1-c1nc(Cc2ccc(OC(F)(F)F)cc2)no1 [compound 165, 5-(6-Chloro-2-ethylimidazo[1,2-a]pyridin-3-yl)-3-(4-(trifluoromethoxy)benzyl)-1,2,4-oxadiazole] | < 40 | 146.4 to 146.9 | –
CCc1nc2ccccn2c1C(=O)NCc1ccc(N2CCN(c3ccc(OC(F)(F)F)cc3)CC2)cc1 [compound 181, 2-Ethyl-N-(4-(4-(4-(trifluoromethoxy)phenyl)piperazin-1-yl)benzyl)imidazo[1,2-a]pyridine-3-carboxamide] | > 69 | 178 to 179 | 1 to 20
CCc1nc2ccc(Cl)cn2c1C(=O)NCc1ccc(N2CC(C)OC(C)C2)cc1 (stereo not drawn) [compound 182, 6-Chloro-N-(4-(2,6-dimethylmorpholino)benzyl)-2-ethylimidazo[1,2-a]pyridine-3-carboxamide] | < 40 | 176 to 177 | –
